Molecular target: T1, ΔF508-CFTR (Homo sapiens, UniProt P13569, DEL508-508)
T1 construct: expressed in transfected cells
Assay: Membrane potential optical assay (FRET voltage-sensor dyes, VIPR), identification of potentiator compounds
Format: cell-based
Conditions: Table 3; assay not given; read-out: % Activity (% Efficacy, relative efficacy)
Outline: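 Potentiator screen measured membrane potential via FRET between CC2-DMPE donor and DiSBAC2(3), read on VIPR II. Compound went in with the first addition of chloride-free gluconate bath; cells were ΔF508-CFTR-expressing NIH3T3 mouse fibroblasts, temperature-corrected at 27 °C for 24 h.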

T1 sequence (P13569 with tags, fused parts or gaps DEL508-508): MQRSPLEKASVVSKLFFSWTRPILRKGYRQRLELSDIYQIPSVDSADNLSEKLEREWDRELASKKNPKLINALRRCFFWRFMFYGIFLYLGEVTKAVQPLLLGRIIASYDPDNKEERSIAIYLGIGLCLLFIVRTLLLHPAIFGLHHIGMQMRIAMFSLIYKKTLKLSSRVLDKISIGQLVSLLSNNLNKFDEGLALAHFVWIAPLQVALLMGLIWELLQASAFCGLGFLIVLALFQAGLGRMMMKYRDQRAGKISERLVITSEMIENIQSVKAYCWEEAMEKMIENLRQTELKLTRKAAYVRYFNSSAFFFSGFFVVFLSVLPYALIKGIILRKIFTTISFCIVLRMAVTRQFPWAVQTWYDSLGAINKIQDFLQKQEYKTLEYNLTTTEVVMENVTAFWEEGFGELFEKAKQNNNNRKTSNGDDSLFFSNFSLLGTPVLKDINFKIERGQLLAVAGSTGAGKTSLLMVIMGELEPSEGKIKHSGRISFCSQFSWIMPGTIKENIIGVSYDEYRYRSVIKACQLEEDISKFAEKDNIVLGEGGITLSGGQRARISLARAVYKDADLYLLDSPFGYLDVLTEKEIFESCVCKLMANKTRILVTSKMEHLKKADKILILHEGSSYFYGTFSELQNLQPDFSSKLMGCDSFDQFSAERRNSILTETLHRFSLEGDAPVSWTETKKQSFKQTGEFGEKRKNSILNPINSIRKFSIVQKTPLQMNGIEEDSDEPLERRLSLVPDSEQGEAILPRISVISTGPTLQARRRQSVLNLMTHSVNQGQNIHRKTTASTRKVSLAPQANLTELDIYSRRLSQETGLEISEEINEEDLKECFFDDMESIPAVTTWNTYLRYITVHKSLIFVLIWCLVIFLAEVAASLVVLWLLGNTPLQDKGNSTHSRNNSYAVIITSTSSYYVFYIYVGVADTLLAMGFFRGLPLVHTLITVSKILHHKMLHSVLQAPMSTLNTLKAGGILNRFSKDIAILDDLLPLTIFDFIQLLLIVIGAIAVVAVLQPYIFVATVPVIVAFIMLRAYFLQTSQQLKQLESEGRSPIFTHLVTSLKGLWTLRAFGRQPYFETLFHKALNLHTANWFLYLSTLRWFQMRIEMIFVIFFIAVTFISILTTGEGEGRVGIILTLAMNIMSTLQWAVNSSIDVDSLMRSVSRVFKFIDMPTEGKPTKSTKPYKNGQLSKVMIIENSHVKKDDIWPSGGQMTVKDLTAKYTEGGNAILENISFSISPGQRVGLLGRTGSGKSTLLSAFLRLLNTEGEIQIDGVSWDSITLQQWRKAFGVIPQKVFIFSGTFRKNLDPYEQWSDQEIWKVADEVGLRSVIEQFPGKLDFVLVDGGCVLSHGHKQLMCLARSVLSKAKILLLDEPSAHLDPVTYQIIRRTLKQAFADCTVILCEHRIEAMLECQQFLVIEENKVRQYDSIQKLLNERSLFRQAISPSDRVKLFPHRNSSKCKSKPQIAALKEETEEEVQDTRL

CCc1cc(C(C)(C)C)c(O)cc1NC(=O)c1c[nH]c2ccccc2c1=O [Compound 659, N-(2-ethyl-5-hydroxy-4-tert-butyl-phenyl)-4-oxo-1H-quinoline-3-carboxamide]
Emax: 25 to 100%

CC(C)(C)c1ccc(NC(=O)c2c[nH]c3cccc(O)c3c2=O)cc1F [Compound 491, N-(3-fluoro-4-tert-butyl-phenyl)-5-hydroxy-4-oxo-1H-quinoline-3-carboxamide]
Emax: 25 to 100%

COc1ccccc1Oc1ccc(C(F)(F)F)cc1NC(=O)c1c[nH]c2ccccc2c1=O [Compound 3, N-[2-(2-methoxyphenoxy)-5-(trifluoromethyl)phenyl]-4-oxo-1H-quinoline-3-carboxamide]
Emax: 25 to 100%

CC(C)n1cc(C(=O)Nc2ccccc2)c(=O)c2ccccc21 [Compound 29, 1-isopropyl-4-oxo-N-phenyl-1H-quinoline-3-carboxamide]
Emax: 25 to 100%

Cc1ccc(-c2ccccc2NC(=O)c2c[nH]c3ccccc3c2=O)o1 [Compound 311, N-[2-(5-methyl-2-furyl)phenyl]-4-oxo-1H-quinoline-3-carboxamide]
Emax: 25 to 100%

CC1(C)CCCNc2cc(NC(=O)c3c[nH]c4ccccc4c3=O)ccc21 [Compound 35, 1,4-dihydro-N-(2,3,4,5-tetrahydro-5,5-dimethyl-1H-benzo[b]azepin-8-yl)-4-oxoquinoline-3-carboxamide]
Emax: 25 to 100%

CCOc1ccccc1-c1ccc(CNC(=O)OC(C)(C)C)cc1NC(=O)c1c[nH]c2ccccc2c1=O [Compound 304, {2′-Ethoxy-2-[(4-oxo-1,4-dihydroquinoline-3-carbonyl)-amino]-biphenyl-4-ylmethyl}-carbamic acid tert-butyl ester]
Emax: 25 to 100%

O=C(Nc1ccccc1C(O)c1ccccc1)c1c[nH]c2ccccc2c1=O (stereo not shown) [Compound 228, N-[2-(hydroxy-phenyl-methyl)phenyl]-4-oxo-1H-quinoline-3-carboxamide]
Emax: 25 to 100%

O=C(Nc1ccc(N2CCN(CCO)CC2)cc1C(F)(F)F)c1c[nH]c2ccccc2c1=O [Compound 673, N-[4-[4-(2-hydroxyethyl)piperazin-1-yl]-2-(trifluoromethyl)phenyl]-4-oxo-1H-quinoline-3-carboxamide]
Emax: 25 to 100%

O=C(Nc1ccc2cc[nH]c2c1)c1cnc2ccc(F)cc2c1O [Compound 345, 6-fluoro-4-hydroxy-N-(1H-indol-6-yl)quinoline-3-carboxamide]
Emax: 25 to 100%

O=C(Nc1ccccc1-c1ccc(F)cc1)c1c[nH]c2ccccc2c1=O [Compound 182, N-[2-(4-fluorophenyl)phenyl]-4-oxo-1H-quinoline-3-carboxamide]
Emax: 25 to 100%

O=C(Nc1cc(Cl)cc(NS(=O)(=O)CCN2CCCCC2)c1)c1c[nH]c2ccccc2c1=O [Compound 133, N-[3-chloro-5-[2-(1-piperidyl)ethylsulfonylamino]phenyl]-4-oxo-1H-quinoline-3-carboxamide]
Emax: 25 to 100%

CCCc1ccc(NC(=O)OC)cc1NC(=O)c1c[nH]c2ccccc2c1=O [Compound 471, [3-[(4-oxo-1H-quinolin-3-yl)carbonylamino]-4-propyl-phenyl]aminoformic acid methyl ester]
Emax: 25 to 100%

O=C(Nc1cnc2ccccc2c1)c1c[nH]c2ccccc2c1=O [Compound 75, 4-oxo-N-(3-quinolyl)-1H-quinoline-3-carboxamide]
Emax: < 25%

O=C(Nc1ccccc1Oc1ccc(Cl)cc1Cl)c1c[nH]c2ccccc2c1=O [Compound 245, N-[2-(2,4-dichlorophenoxy)phenyl]-4-oxo-1H-quinoline-3-carboxamide]
Emax: 25 to 100%

NC(=O)c1ccccc1NC(=O)c1c[nH]c2ccccc2c1=O [Compound 331, N-(2-carbamoylphenyl)-4-oxo-1H-quinoline-3-carboxamide]
Emax: < 25%

Cc1cc(NC(=O)c2c[nH]c3ccccc3c2=O)ccc1F [Compound 257, N-(4-fluoro-3-methyl-phenyl)-4-oxo-1H-quinoline-3-carboxamide]
Emax: 25 to 100%

Cc1nc2cc(NC(=O)c3c[nH]c4ccccc4c3=O)ccc2s1 [Compound 44, N-(2-methylbenzothiazol-5-yl)-4-oxo-1H-quinoline-3-carboxamide]
Emax: 25 to 100%

NCc1ccccc1-c1ccc(NC(=O)c2c[nH]c3ccccc3c2=O)cc1 [Compound 86, N-[4-[2-(aminomethyl)phenyl]phenyl]-4-oxo-1H-quinoline-3-carboxamide]
Emax: 25 to 100%

O=C(Nc1cc(Cl)cc(NS(=O)(=O)CCN2CCOCC2)c1)c1c[nH]c2ccccc2c1=O [Compound 46, N-[3-chloro-5-(2-morpholinoethylsulfonylamino)phenyl]-4-oxo-1H-quinoline-3-carboxamide]
Emax: 25 to 100%

O=C(Nc1ccc(S(=O)(=O)Nc2ccccn2)cc1)c1c[nH]c2ccccc2c1=O [Compound 21, 4-oxo-N-[4-(2-pyridylsulfamoyl)phenyl]-1H-quinoline-3-carboxamide]
Emax: < 25%

CCN(CC)c1ccc(NC(=O)c2c[nH]c3ccccc3c2=O)c(C)c1 [Compound 82, N-(4-diethylamino-2-methyl-phenyl)-4-oxo-1H-quinoline-3-carboxamide]
Emax: 25 to 100%

O=C(Nc1ccc(C(O)(C(F)(F)F)C(F)(F)F)cc1)c1c[nH]c2ccccc2c1=O [Compound 150, 4-oxo-N-[4-[2,2,2-trifluoro-1-hydroxy-1-(trifluoromethyl)ethyl]phenyl]-1H-quinoline-3-carboxamide]
Emax: 25 to 100%

COc1c(N)cc(C(C)(C)C)cc1NC(=O)c1c[nH]c2ccccc2c1=O [Compound 55, N-(3-amino-2-methoxy-5-tert-butyl-phenyl)-4-oxo-1H-quinoline-3-carboxamide]
Emax: < 25%

O=C(Nc1cc(O)cc(C(F)(F)F)c1)c1c[nH]c2ccc(F)cc2c1=O [Compound 574, 6-fluoro-N-[3-hydroxy-5-(trifluoromethyl)phenyl]-4-oxo-1H-quinoline-3-carboxamide]
Emax: 25 to 100%

CC1CCN(S(=O)(=O)c2ccc3[nH]cc(C(=O)Nc4cc5[nH]ccc5cc4C(C)(C)C)c(=O)c3c2)CC1 [Compound 51, 6-[(4-methyl-1-piperidyl)sulfonyl]-4-oxo-N-(5-tert-butyl-1H-indol-6-yl)-1H-quinoline-3-carboxamide]
Emax: 25 to 100%

COc1ccc(Oc2ccc(C(F)(F)F)cc2NC(=O)c2c[nH]c3ccccc3c2=O)cc1 [Compound 205, N-[2-(4-methoxyphenoxy)-5-(trifluoromethyl)phenyl]-4-oxo-1H-quinoline-3-carboxamide]
Emax: 25 to 100%

CC(C)(C)c1cc(C(C)(C)C)c(NC(=O)c2c[nH]c3cc(C#N)ccc3c2=O)cc1O [Compound 548, 7-cyano-N-(5-hydroxy-2,4-ditert-butyl-phenyl)-4-oxo-1H-quinoline-3-carboxamide]
Emax: 25 to 100%

CCCc1ccc(NC)cc1NC(=O)c1c[nH]c2ccccc2c1=O [Compound 356, N-(5-methylamino-2-propyl-phenyl)-4-oxo-1H-quinoline-3-carboxamide]
Emax: 25 to 100%

O=C(Nc1cc2[nH]ccc2cc1C(F)(F)F)c1c[nH]c2cccc(O)c2c1=O [Compound 494, 5-hydroxy-4-oxo-N-[5-(trifluoromethyl)-1H-indol-6-yl]-1H-quinoline-3-carboxamide]
Emax: 25 to 100%

Cc1cccc2c(=O)c(C(=O)Nc3cc(O)c(C(C)(C)C)cc3F)c[nH]c12 [Compound 625, N-(2-fluoro-5-hydroxy-4-tert-butyl-phenyl)-8-methyl-4-oxo-1H-quinoline-3-carboxamide]
Emax: < 25%

CC(C)(C)c1cc(C(C)(C)C)c(NC(=O)c2c[nH]c3ccc(F)cc3c2=O)cc1O [Compound 103, 6-fluoro-N-(5-hydroxy-2,4-ditert-butyl-phenyl)-4-oxo-1H-quinoline-3-carboxamide]
Emax: > 100%

CC(C)(C)c1cc(F)c(NC(=O)c2c[nH]c3ccc(F)cc3c2=O)cc1O [Compound 319, 6-fluoro-N-(2-fluoro-5-hydroxy-4-tert-butyl-phenyl)-4-oxo-1H-quinoline-3-carboxamide]
Emax: 25 to 100%

O=C(Nc1ccc(F)cn1)c1c[nH]c2ccccc2c1=O [Compound 477, N-(5-fluoro-2-pyridyl)-4-oxo-1H-quinoline-3-carboxamide]
Emax: < 25%

Cc1ccc(-c2ccccc2NC(=O)c2c[nH]c3ccccc3c2=O)cc1 [Compound 181, 4-oxo-N-[2-(p-tolyl)phenyl]-1H-quinoline-3-carboxamide]
Emax: 25 to 100%

O=C(Nc1ccc2[nH]ccc2c1)c1c[nH]c2ccccc2c1=O [Compound 294, N-(1H-indol-5-yl)-4-oxo-1H-quinoline-3-carboxamide]
Emax: 25 to 100%

CCc1cccc2c(=O)c(C(=O)Nc3cc(O)c(C(C)(C)C)cc3F)c[nH]c12 [Compound 605, 8-ethyl-N-(2-fluoro-5-hydroxy-4-tert-butyl-phenyl)-4-oxo-1H-quinoline-3-carboxamide]
Emax: < 25%

O=C(Nc1ccccc1-c1nc(-c2ccc(Cl)cc2)no1)c1c[nH]c2ccccc2c1=O [Compound 102, N-[2-[3-(4-chlorophenyl)-1,2,4-oxadiazol-5-yl]phenyl]-4-oxo-1H-quinoline-3-carboxamide]
Emax: 25 to 100%

O=C(Nc1ccccc1-c1ccco1)c1c[nH]c2ccccc2c1=O [Compound 115, N-[2-(2-furyl)phenyl]-4-oxo-1H-quinoline-3-carboxamide]
Emax: 25 to 100%

CCCCc1ccc(NC(=O)c2c[nH]c3ccccc3c2=O)cc1 [Compound 324, N-(4-butylphenyl)-4-oxo-1H-quinoline-3-carboxamide]
Emax: 25 to 100%

CC1(C)CCNc2cc(NC(=O)c3c[nH]c4ccccc4c3=O)ccc21 [Compound 300, N-(4,4-Dimethyl-1,2,3,4-tetrahydroquinolin-7-yl)-4-oxo-1H-quinoline-3-carboxamide]
Emax: 25 to 100%

O=C(Nc1ccccc1C(F)(F)F)c1c[nH]c2ccccc2c1=O [Compound 111, 4-oxo-N-[2-(trifluoromethyl)phenyl]-1H-quinoline-3-carboxamide]
Emax: 25 to 100%

CC(C)(C)c1cc(F)c(NC(=O)c2c[nH]c3ccccc3c2=O)cc1O [Compound 143, N-(2-fluoro-5-hydroxy-4-tert-butyl-phenyl)-4-oxo-1H-quinoline-3-carboxamide]
Emax: 25 to 100%

From patent US8802700B2 (Vertex Pharmaceuticals Incorporated, priority 2010, dated 2014)
